According to ChEMBL document CHEMBL1240496, “Development of potent glucagon-like peptide-1 agonists with high enzyme stability via introduction of multiple lactam bridges” (J Med Chem, 2010):
Bridge positions count the residues as written; N and C are the ends. Peptide text beside a SMILES is read from it.

How the values were obtained:
[1] = molecular target: T1, Glucagon-like peptide 1 receptor (Homo sapiens, UniProt P43220); experiment: Activation of human GLP1 receptor expressed in HEK293 cells assessed as increase in cAMP accumulation relative to GLP1; type: functional, cell-based
DPP4 = experiment: Chemical stability of the compound assessed as half life up to 24 hrs by HPLC analysis in presence of human recombinant DPP4; type: physicochemical
NEP 24.11 = experiment: Chemical stability of the compound assessed as half life up to 24 hrs by HPLC analysis in presence of human recombinant NEP 24.11; type: physicochemical
[2] = molecular target: T1, Glucagon-like peptide 1 receptor; experiment: Activation of human GLP1 receptor expressed in HEK293 cells assessed as increase in cAMP accumulation; type: functional, cell-based

T1 sequence (P43220 whole entry): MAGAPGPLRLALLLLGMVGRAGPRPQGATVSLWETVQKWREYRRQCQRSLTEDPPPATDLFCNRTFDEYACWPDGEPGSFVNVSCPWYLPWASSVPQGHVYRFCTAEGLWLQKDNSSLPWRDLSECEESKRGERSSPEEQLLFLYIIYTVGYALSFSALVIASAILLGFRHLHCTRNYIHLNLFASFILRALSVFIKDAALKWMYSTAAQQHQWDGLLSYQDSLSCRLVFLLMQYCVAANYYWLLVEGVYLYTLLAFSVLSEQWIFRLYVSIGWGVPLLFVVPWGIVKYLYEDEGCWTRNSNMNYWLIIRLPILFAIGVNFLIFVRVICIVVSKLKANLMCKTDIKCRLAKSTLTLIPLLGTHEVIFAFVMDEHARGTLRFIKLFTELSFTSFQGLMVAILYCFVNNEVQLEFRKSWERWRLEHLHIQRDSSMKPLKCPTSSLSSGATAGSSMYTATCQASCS

Row | SMILES | Activity [1] | half-life (DPP4) | half-life (NEP 24.11) | EC50 ([2]; read-out: EC50) | EC50 ([2]; read-out: pEC50 (converted))
1 | CC[C@H](C)[C@H](NC(=O)[C@H](Cc1ccccc1)NC(=O)[C@H](CCC(=O)O)NC(=O)[C@H](CCCCN)NC(=O)[C@H](C)NC(=O)[C@H](C)NC(=O)[C@H](CCC(N)=O)NC(=O)[C@@H]1CCCCNC(=O)CC[C@H](NC(=O)[C@H](CO)NC(=O)[C@@H](NC(=O)[C@H](CC(=O)O)NC(=O)[C@H](CO)NC(=O)[C@@H](NC(=O)[C@H](Cc2ccccc2)NC(=O)[C@@H](NC(=O)CNC(=O)[C@H](CCC(=O)O)NC(=O)[C@H](C)NC(=O)[C@@H](N)Cc2cnc[nH]2)[C@@H](C)O)[C@@H](C)O)C(C)C)C(=O)N[C@@H](Cc2ccc(O)cc2)C(=O)N[C@@H](CC(C)C)C(=O)N[C@@H](CCC(=O)O)C(=O)N1)C(=O)N[C@H]1CCC(=O)NCCCC[C@@H](C(=O)NCC(=O)N[C@@H](CCCNC(=N)N)C(N)=O)NC(=O)[C@H](C(C)C)NC(=O)[C@H](CC(C)C)NC(=O)[C@H](Cc2c[nH]c3ccccc23)NC1=O | 240% |  |  |  | 
2 | CC[C@H](C)[C@H](NC(=O)[C@H](Cc1ccccc1)NC(=O)[C@H](CCC(=O)O)NC(=O)[C@H](CCCCN)NC(=O)[C@H](C)NC(=O)[C@H](C)NC(=O)[C@H](CCC(N)=O)NC(=O)CNC(=O)[C@H](CCC(=O)O)NC(=O)[C@@H]1CCCCNC(=O)CC[C@H](NC(=O)[C@H](CC(=O)O)NC(=O)[C@H](CO)NC(=O)[C@@H](NC(=O)[C@H](Cc2ccccc2)NC(=O)[C@@H](NC(=O)CNC(=O)[C@H](CCC(=O)O)NC(=O)[C@H](C)NC(=O)[C@@H](N)Cc2cnc[nH]2)[C@@H](C)O)[C@@H](C)O)C(=O)N[C@@H](CO)C(=O)N[C@@H](CO)C(=O)N[C@@H](Cc2ccc(O)cc2)C(=O)N1)C(=O)N[C@H]1CCC(=O)NCCCC[C@@H](C(=O)NCC(=O)N[C@@H](CCCNC(=N)N)C(N)=O)NC(=O)[C@H](C(C)C)NC(=O)[C@H](CC(C)C)NC(=O)[C@H](Cc2c[nH]c3ccccc23)NC1=O (H-HAEGTFTSDESSYKEGQAAKEFIEWLVKGR-NH2; lactam 10-14, 24-28) | 140% |  |  |  | 
3 | CC[C@H](C)[C@H](NC(=O)[C@H](Cc1ccccc1)NC(=O)[C@H](CCC(=O)O)NC(=O)[C@@H]1CCCCNC(=O)CC[C@H](NC(=O)[C@H](CCC(=O)O)NC(=O)[C@@H]2CCCCNC(=O)CC[C@H](NC(=O)[C@H](CC(=O)O)NC(=O)[C@H](CO)NC(=O)[C@@H](NC(=O)[C@H](Cc3ccccc3)NC(=O)[C@@H](NC(=O)CNC(=O)[C@H](CCC(=O)O)NC(=O)[C@H](C)NC(=O)[C@@H](N)Cc3cnc[nH]3)[C@@H](C)O)[C@@H](C)O)C(=O)N[C@@H](CO)C(=O)N[C@@H](CO)C(=O)N[C@@H](Cc3ccc(O)cc3)C(=O)N2)C(=O)N[C@@H](CCC(N)=O)C(=O)N[C@@H](C)C(=O)N[C@@H](C)C(=O)N1)C(=O)N[C@H]1CCC(=O)NCCCC[C@@H](C(=O)NCC(=O)N[C@@H](CCCN=C(N)N)C(N)=O)NC(=O)[C@H](C(C)C)NC(=O)[C@H](CC(C)C)NC(=O)[C@H](Cc2c[nH]c3ccccc23)NC1=O (H-HAEGTFTSDESSYKEEQAAKEFIEWLVKGR-NH2; lactam 10-14, 16-20, 24-28) |  | > 24 h | > 96 h | 1.8 nM | 
4 | CC[C@H](C)[C@H](NC(=O)[C@H](Cc1ccccc1)NC(=O)[C@H](CCC(=O)O)NC(=O)[C@H](CCCCN)NC(=O)[C@H](C)NC(=O)[C@H](C)NC(=O)[C@H](CCC(N)=O)NC(=O)[C@@H]1CCC(=O)NCCCC[C@H](NC(=O)[C@H](CO)NC(=O)[C@@H](NC(=O)[C@H](CC(=O)O)NC(=O)[C@H](CO)NC(=O)[C@@H](NC(=O)[C@H](Cc2ccccc2)NC(=O)[C@@H](NC(=O)CNC(=O)[C@H](CCC(=O)O)NC(=O)[C@H](C)NC(=O)[C@@H](N)Cc2cnc[nH]2)[C@@H](C)O)[C@@H](C)O)C(C)C)C(=O)N[C@@H](Cc2ccc(O)cc2)C(=O)N[C@@H](CC(C)C)C(=O)N[C@@H](CCC(=O)O)C(=O)N1)C(=O)N[C@H]1CCCCNC(=O)CC[C@@H](C(=O)NCC(=O)N[C@@H](CCCNC(=N)N)C(N)=O)NC(=O)[C@H](C(C)C)NC(=O)[C@H](CC(C)C)NC(=O)[C@H](Cc2c[nH]c3ccccc23)NC1=O (H-HAEGTFTSDVSKYLEEQAAKEFIKWLVEGR-NH2; lactam 12-16, 24-28) | 460% | 4.1 h | 18 h | 1 nM | 
5 | CC[C@H](C)[C@H](NC(=O)[C@H](Cc1ccccc1)NC(=O)[C@H](CCC(=O)O)NC(=O)[C@@H]1CCCCNC(=O)CC[C@H](NC(=O)[C@H](CCC(=O)O)NC(=O)[C@H](CC(C)C)NC(=O)[C@H](Cc2ccc(O)cc2)NC(=O)[C@H](CO)NC(=O)[C@H](CO)NC(=O)[C@@H](NC(=O)[C@H](CC(=O)O)NC(=O)[C@H](CO)NC(=O)[C@@H](NC(=O)[C@H](Cc2ccccc2)NC(=O)[C@@H](NC(=O)CNC(=O)[C@H](CCC(=O)O)NC(=O)[C@H](C)NC(=O)[C@@H](N)Cc2cnc[nH]2)[C@@H](C)O)[C@@H](C)O)C(C)C)C(=O)N[C@@H](CCC(N)=O)C(=O)N[C@@H](C)C(=O)N[C@@H](C)C(=O)N1)C(=O)N[C@@H](C)C(=O)N[C@@H](Cc1c[nH]c2ccccc12)C(=O)N[C@@H](CC(C)C)C(=O)N[C@H](C(=O)N[C@@H](CCCCN)C(=O)NCC(=O)N[C@@H](CCCNC(=N)N)C(=O)O)C(C)C | 160% |  |  |  | 
6 | CC[C@H](C)[C@H](NC(=O)[C@H](Cc1ccccc1)NC(=O)[C@H](CCC(=O)O)NC(=O)[C@H](CCCCN)NC(=O)[C@H](C)NC(=O)[C@H](C)NC(=O)[C@H](CCC(N)=O)NC(=O)CNC(=O)[C@H](CC(C)C)NC(=O)[C@H](Cc1ccc(O)cc1)NC(=O)[C@H](CO)NC(=O)[C@H](CO)NC(=O)[C@@H](NC(=O)[C@H](CC(=O)O)NC(=O)[C@H](CO)NC(=O)[C@@H](NC(=O)[C@H](Cc1ccccc1)NC(=O)[C@@H](NC(=O)CNC(=O)[C@H](CCC(=O)O)NC(=O)[C@H](C)NC(=O)[C@@H](N)Cc1cnc[nH]1)[C@@H](C)O)[C@@H](C)O)C(C)C)C(=O)N[C@@H](C)C(=O)N[C@@H](Cc1c[nH]c2ccccc12)C(=O)N[C@@H](CC(C)C)C(=O)N[C@H](C(=O)N[C@@H](CCCCN)C(=O)NCC(=O)N[C@@H](CCCNC(=N)N)C(=O)O)C(C)C [GLP-1] (H-HAEGTFTSDVSSYLGQAAKEFIAWLVKGR-OH) |  | 2 h | 4.6 h |  | 
7 | CC[C@H](C)[C@H](NC(=O)[C@H](Cc1ccccc1)NC(=O)[C@H](CCC(=O)O)NC(=O)[C@H](CCCCN)NC(=O)[C@H](C)NC(=O)[C@H](C)NC(=O)[C@H](CCC(N)=O)NC(=O)CNC(=O)[C@H](CCC(=O)O)NC(=O)[C@@H]1CCCCNC(=O)CC[C@H](NC(=O)[C@H](CC(=O)O)NC(=O)[C@H](CO)NC(=O)[C@@H](NC(=O)[C@H](Cc2ccccc2)NC(=O)[C@@H](NC(=O)CNC(=O)[C@H](CCC(=O)O)NC(=O)[C@H](C)NC(=O)[C@@H](N)Cc2cnc[nH]2)[C@@H](C)O)[C@@H](C)O)C(=O)N[C@@H](CO)C(=O)N[C@@H](CO)C(=O)N[C@@H](Cc2ccc(O)cc2)C(=O)N1)C(=O)N[C@H]1CCC(=O)NCCCC[C@@H](C(=O)NCC(=O)N[C@@H](CCCN=C(N)N)C(N)=O)NC(=O)[C@H](C(C)C)NC(=O)[C@H](CC(C)C)NC(=O)[C@H](Cc2c[nH]c3ccccc23)NC1=O (H-HAEGTFTSDESSYKEGQAAKEFIEWLVKGR-NH2; lactam 10-14, 24-28) |  | 3.1 h | 6.6 h | 3.3 nM | 
8 | CC[C@H](C)[C@H](NC(=O)[C@H](Cc1ccccc1)NC(=O)[C@H](CCC(=O)O)NC(=O)[C@@H]1CCCCNC(=O)CC[C@H](NC(=O)[C@H](CCC(=O)O)NC(=O)[C@H](CC(C)C)NC(=O)[C@H](Cc2ccc(O)cc2)NC(=O)[C@H](CO)NC(=O)[C@H](CO)NC(=O)[C@@H](NC(=O)[C@H](CC(=O)O)NC(=O)[C@H](CO)NC(=O)[C@@H](NC(=O)[C@H](Cc2ccccc2)NC(=O)[C@@H](NC(=O)CNC(=O)[C@H](CCC(=O)O)NC(=O)[C@H](C)NC(=O)[C@@H](N)Cc2cnc[nH]2)[C@@H](C)O)[C@@H](C)O)C(C)C)C(=O)N[C@@H](CCC(N)=O)C(=O)N[C@@H](C)C(=O)N[C@@H](C)C(=O)N1)C(=O)N[C@@H](C)C(=O)N[C@@H](Cc1c[nH]c2ccccc12)C(=O)N[C@@H](CC(C)C)C(=O)N[C@H](C(=O)N[C@@H](CCCCN)C(=O)NCC(=O)N[C@@H](CCCN=C(N)N)C(=O)O)C(C)C |  | 2.9 h | 6.9 h | 2.8 nM | 5.01 nM
9 | CC[C@H](C)[C@H](NC(=O)[C@H](Cc1ccccc1)NC(=O)[C@H](CCC(=O)O)NC(=O)[C@H](CCCCN)NC(=O)[C@H](C)NC(=O)[C@H](C)NC(=O)[C@H](CCC(N)=O)NC(=O)[C@@H]1CCCCNC(=O)CC[C@H](NC(=O)[C@H](CO)NC(=O)[C@@H](NC(=O)[C@H](CC(=O)O)NC(=O)[C@H](CO)NC(=O)[C@@H](NC(=O)[C@H](Cc2ccccc2)NC(=O)[C@@H](NC(=O)CNC(=O)[C@H](CCC(=O)O)NC(=O)[C@H](C)NC(=O)[C@@H](N)Cc2cnc[nH]2)[C@@H](C)O)[C@@H](C)O)C(C)C)C(=O)N[C@@H](Cc2ccc(O)cc2)C(=O)N[C@@H](CC(C)C)C(=O)N[C@@H](CCC(=O)O)C(=O)N1)C(=O)N[C@H]1CCC(=O)NCCCC[C@@H](C(=O)NCC(=O)N[C@@H](CCCN=C(N)N)C(N)=O)NC(=O)[C@H](C(C)C)NC(=O)[C@H](CC(C)C)NC(=O)[C@H](Cc2c[nH]c3ccccc23)NC1=O |  | 3.6 h | > 96 h | 1.9 nM | 
10 | CC[C@H](C)[C@H](NC(=O)[C@H](Cc1ccccc1)NC(=O)[C@H](CCC(=O)O)NC(=O)[C@@H]1CCCCNC(=O)CC[C@H](NC(=O)[C@H](CCC(=O)O)NC(=O)[C@@H]2CCCCNC(=O)CC[C@H](NC(=O)[C@H](CC(=O)O)NC(=O)[C@H](CO)NC(=O)[C@@H](NC(=O)[C@H](Cc3ccccc3)NC(=O)[C@@H](NC(=O)CNC(=O)[C@H](CCC(=O)O)NC(=O)[C@H](C)NC(=O)[C@@H](N)Cc3cnc[nH]3)[C@@H](C)O)[C@@H](C)O)C(=O)N[C@@H](CO)C(=O)N[C@@H](CO)C(=O)N[C@@H](Cc3ccc(O)cc3)C(=O)N2)C(=O)N[C@@H](CCC(N)=O)C(=O)N[C@@H](C)C(=O)N[C@@H](C)C(=O)N1)C(=O)N[C@H]1CCC(=O)NCCCC[C@@H](C(=O)NCC(=O)N[C@@H](CCCNC(=N)N)C(N)=O)NC(=O)[C@H](C(C)C)NC(=O)[C@H](CC(C)C)NC(=O)[C@H](Cc2c[nH]c3ccccc23)NC1=O (H-HAEGTFTSDESSYKEEQAAKEFIEWLVKGR-NH2; lactam 10-14, 16-20, 24-28) | 260% |  |  |  | 
